In PubChem BioAssay (NCI):
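96-well plates; 48 h exposure; 5 concentrations. Endpoints by linear interpolation between flanking doses. Not reached: highest tested concentration assigned. Abbreviation: GI50, concentration required for 50% inhibition of growth. TGI: concentration producing complete growth inhibition.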

Experiments:
Assay in all cases: DTP human tumour cell line panel, 48 h
A498 renal = test system: A498 renal
A549 NSCLC = test system: A549 NSCLC
IGROV1 ovarian = test system: IGROV1 ovarian
KM12 colon = test system: KM12 colon
SF-539 CNS = test system: SF-539 CNS
SK-MEL-2 melanoma = test system: SK-MEL-2 melanoma
SW-620 colon = test system: SW-620 colon
TK-10 renal = test system: TK-10 renal
UO-31 renal = test system: UO-31 renal
RPMI-8226 leukemia = test system: RPMI-8226 leukemia

O=C(O)c1cn(C2CC2)c2cc(N3CCN(C(=O)Nc4nc(-c5ccc(Cl)cc5)cs4)CC3)c(F)cc2c1=O
GI50 (A498 renal): 1470 nM
TGI (A498 renal): 9.46 µM
GI50 (A549 NSCLC): 2.71 µM
TGI (A549 NSCLC): > 100 µM
GI50 (IGROV1 ovarian): 0.815 µM
TGI (IGROV1 ovarian): > 100 µM
GI50 (KM12 colon): 2.15 µM
TGI (KM12 colon): > 100 µM
GI50 (SF-539 CNS): 0.775 µM
TGI (SF-539 CNS): > 100 µM
GI50 (SK-MEL-2 melanoma): 2.4 µM
TGI (SK-MEL-2 melanoma): 6.85 µM
GI50 (SW-620 colon): 4.7 µM
TGI (SW-620 colon): > 100 µM
GI50 (TK-10 renal): 4.11 µM
TGI (TK-10 renal): > 100 µM
GI50 (UO-31 renal): 0.596 µM
TGI (UO-31 renal): 33.7 µM

OCCCNC(=S)Nc1ccc(-c2nc3ccccc3s2)cc1
GI50 (A549 NSCLC): 33.7 µM
TGI (A549 NSCLC): > 100 µM
GI50 (IGROV1 ovarian): 13.5 µM
TGI (IGROV1 ovarian): 95.4 µM
GI50 (KM12 colon): 17.8 µM
TGI (KM12 colon): 46.9 µM
GI50 (RPMI-8226 leukemia): 26.5 µM
TGI (RPMI-8226 leukemia): > 100 µM
GI50 (SF-539 CNS): 29.8 µM
TGI (SF-539 CNS): 95.4 µM
GI50 (SK-MEL-2 melanoma): 31.6 µM
TGI (SK-MEL-2 melanoma): > 100 µM
GI50 (SW-620 colon): 47.7 µM
TGI (SW-620 colon): > 100 µM
GI50 (TK-10 renal): 19.3 µM
TGI (TK-10 renal): 55.8 µM
GI50 (UO-31 renal): 12 µM
TGI (UO-31 renal): 60.7 µM

Cc1ccc(S(=O)(=O)C2=C3C(=C(c4ccccc4)c4ccccc43)CN(S(=O)(=O)c3ccc(C)cc3)C2)cc1
GI50 (A549 NSCLC): > 100 µM
TGI (A549 NSCLC): > 100 µM
GI50 (IGROV1 ovarian): 5.36 µM
TGI (IGROV1 ovarian): 62.6 µM
GI50 (KM12 colon): 5.87 µM
TGI (KM12 colon): > 100 µM
GI50 (RPMI-8226 leukemia): 1.41 µM
TGI (RPMI-8226 leukemia): 7.41 µM
GI50 (SF-539 CNS): 10.9 µM
TGI (SF-539 CNS): 49 µM
GI50 (SK-MEL-2 melanoma): 6.1 µM
TGI (SK-MEL-2 melanoma): 30.3 µM
GI50 (SW-620 colon): 0.636 µM
TGI (SW-620 colon): 3.4 µM
GI50 (TK-10 renal): 14.2 µM
TGI (TK-10 renal): 30.1 µM
GI50 (UO-31 renal): 1.95 µM
TGI (UO-31 renal): 18.2 µM

O=[N+]([O-])c1ccc(C2N3CCCCC3[C@@H]3c4[nH]c5ccccc5c4CCN23)cc1 (stereo not given in full)
TGI (A498 renal): 36.5 µM
TGI (A549 NSCLC): > 100 µM
TGI (IGROV1 ovarian): > 100 µM
TGI (RPMI-8226 leukemia): > 100 µM
TGI (SF-539 CNS): 29.9 µM
TGI (SK-MEL-2 melanoma): 33 µM
TGI (SW-620 colon): > 100 µM
TGI (TK-10 renal): 51.1 µM
TGI (UO-31 renal): 81.8 µM

COc1ccc(OC)c2c3c(ncc12)-c1cc2c(cc1C3)OCO2
GI50 (A549 NSCLC): > 100 µM
TGI (A549 NSCLC): > 100 µM
GI50 (IGROV1 ovarian): 4.24 µM
TGI (IGROV1 ovarian): > 100 µM
GI50 (KM12 colon): > 100 µM
TGI (KM12 colon): > 100 µM
GI50 (RPMI-8226 leukemia): > 100 µM
TGI (RPMI-8226 leukemia): > 100 µM
GI50 (SK-MEL-2 melanoma): > 100 µM
TGI (SK-MEL-2 melanoma): > 100 µM
GI50 (SW-620 colon): > 100 µM
TGI (SW-620 colon): > 100 µM
GI50 (TK-10 renal): > 100 µM
TGI (TK-10 renal): > 100 µM
GI50 (UO-31 renal): > 100 µM
TGI (UO-31 renal): > 100 µM

Cc1ccc(C2CC(c3cccc(Nc4ccncc4)c3)=NN2c2ccc(Cl)cc2)cc1 (stereo not given)
GI50 (A498 renal): 1380 nM
TGI (A498 renal): 2.7 µM
GI50 (A549 NSCLC): 1.73 µM
TGI (A549 NSCLC): 3.29 µM
GI50 (IGROV1 ovarian): 1.72 µM
TGI (IGROV1 ovarian): 3.24 µM
GI50 (KM12 colon): 1.62 µM
TGI (KM12 colon): 2.99 µM
GI50 (SF-539 CNS): 1.74 µM
TGI (SF-539 CNS): 3.14 µM
GI50 (SW-620 colon): 1.55 µM
TGI (SW-620 colon): 3.04 µM
GI50 (TK-10 renal): 1.78 µM
TGI (TK-10 renal): 3.35 µM
GI50 (UO-31 renal): 1.35 µM
TGI (UO-31 renal): 2.63 µM

COc1ccc2c(c1)N(CCC1CCCCN1C)c1ccccc1S2 (stereo not given)
TGI (A498 renal): 23.8 µM
TGI (A549 NSCLC): 27.8 µM
TGI (IGROV1 ovarian): 26.5 µM
TGI (KM12 colon): 23.6 µM
TGI (RPMI-8226 leukemia): 29.5 µM
TGI (SF-539 CNS): 74.4 µM
TGI (SK-MEL-2 melanoma): 29.1 µM
TGI (SW-620 colon): 35.5 µM
TGI (TK-10 renal): 28.1 µM

O=C(Cc1nc2ccccc2s1)NC12CC3CC(CC(C3)C1)C2
TGI (A498 renal): > 100 µM
TGI (A549 NSCLC): > 100 µM
TGI (KM12 colon): > 100 µM
TGI (SF-539 CNS): > 100 µM
TGI (SK-MEL-2 melanoma): > 100 µM
TGI (SW-620 colon): > 100 µM
TGI (TK-10 renal): > 100 µM
TGI (UO-31 renal): > 100 µM

O=C(Nc1cc(Cl)cc(Cl)c1)c1ccc(NC2=C(Cl)C(=O)N(Cc3ccccc3)C2=O)cc1
GI50 (A498 renal): 8060 nM
TGI (A498 renal): 22.2 µM
GI50 (A549 NSCLC): 10.8 µM
TGI (A549 NSCLC): 32.4 µM
GI50 (IGROV1 ovarian): 1.57 µM
TGI (IGROV1 ovarian): 3.32 µM
GI50 (KM12 colon): 6.43 µM
TGI (KM12 colon): 26.2 µM
GI50 (RPMI-8226 leukemia): 1.74 µM
TGI (RPMI-8226 leukemia): 4.2 µM
GI50 (SF-539 CNS): 3.5 µM
TGI (SF-539 CNS): 13.7 µM
GI50 (SK-MEL-2 melanoma): 12.7 µM
TGI (SK-MEL-2 melanoma): 33.9 µM
GI50 (TK-10 renal): 19.5 µM
TGI (TK-10 renal): 51.5 µM
GI50 (UO-31 renal): 2.29 µM
TGI (UO-31 renal): 6.01 µM

O=C(CN/C=C\C(=O)c1cc(Cl)ccc1Cl)c1ccccc1
GI50 (A498 renal): 23200 nM
TGI (A498 renal): 90.5 µM
GI50 (A549 NSCLC): 67 µM
TGI (A549 NSCLC): > 100 µM
GI50 (IGROV1 ovarian): 29.1 µM
TGI (IGROV1 ovarian): > 100 µM
GI50 (KM12 colon): 23.8 µM
TGI (KM12 colon): 55.3 µM
GI50 (SF-539 CNS): 20.4 µM
TGI (SF-539 CNS): 38.8 µM
GI50 (SW-620 colon): 32 µM
TGI (SW-620 colon): > 100 µM
GI50 (TK-10 renal): 26 µM
TGI (TK-10 renal): 73.7 µM
GI50 (UO-31 renal): 34.4 µM
TGI (UO-31 renal): > 100 µM

CCOCC[P+](c1ccccc1)(c1ccccc1)c1ccccc1
GI50 (A498 renal): 17600 nM
TGI (A498 renal): 64.2 µM
GI50 (A549 NSCLC): 16.4 µM
TGI (A549 NSCLC): 87.8 µM
GI50 (IGROV1 ovarian): 13.5 µM
TGI (IGROV1 ovarian): 63.7 µM
GI50 (KM12 colon): 11.2 µM
TGI (KM12 colon): > 100 µM
GI50 (RPMI-8226 leukemia): 4.55 µM
TGI (RPMI-8226 leukemia): 40.4 µM
GI50 (SF-539 CNS): 23.2 µM
TGI (SF-539 CNS): > 100 µM
GI50 (SK-MEL-2 melanoma): 18.6 µM
TGI (SK-MEL-2 melanoma): 47.9 µM
GI50 (SW-620 colon): 25.2 µM
TGI (SW-620 colon): > 100 µM
GI50 (UO-31 renal): 34.8 µM
TGI (UO-31 renal): > 100 µM

COc1ccc(/C=C2\CCCC3=C2N=C2SC=NN2C3c2ccc(OC)c(OC)c2)cc1OC (stereo not given)
GI50 (A498 renal): 2760 nM
TGI (A498 renal): 40.8 µM
GI50 (A549 NSCLC): 30.5 µM
TGI (A549 NSCLC): > 100 µM
GI50 (IGROV1 ovarian): 28.9 µM
TGI (IGROV1 ovarian): > 100 µM
GI50 (KM12 colon): 11.8 µM
TGI (KM12 colon): > 100 µM
GI50 (SF-539 CNS): 14.6 µM
TGI (SF-539 CNS): 68.5 µM
GI50 (SK-MEL-2 melanoma): 25.8 µM
TGI (SK-MEL-2 melanoma): > 100 µM
GI50 (SW-620 colon): 10.1 µM
TGI (SW-620 colon): 39.3 µM
GI50 (TK-10 renal): 21 µM
TGI (TK-10 renal): 76.2 µM
GI50 (UO-31 renal): 15.3 µM
TGI (UO-31 renal): > 100 µM

C#Cc1ccc(-n2c(/C=C/c3ccc4ccccc4n3)nc3ncccc3c2=O)cc1
GI50 (A498 renal): 138 nM
TGI (A498 renal): 0.615 µM
GI50 (A549 NSCLC): 0.353 µM
TGI (A549 NSCLC): 1.83 µM
GI50 (IGROV1 ovarian): 0.428 µM
TGI (IGROV1 ovarian): 1.58 µM
GI50 (KM12 colon): 0.359 µM
TGI (KM12 colon): 1.26 µM
GI50 (SF-539 CNS): 0.593 µM
TGI (SF-539 CNS): 1.93 µM
GI50 (SK-MEL-2 melanoma): 0.306 µM
TGI (SK-MEL-2 melanoma): 0.785 µM
GI50 (SW-620 colon): 0.387 µM
TGI (SW-620 colon): 1.52 µM
GI50 (UO-31 renal): 0.403 µM
TGI (UO-31 renal): 1.8 µM

Clc1cccc(Cc2cn3cc(-c4ccccc4)nc3s2)c1
GI50 (A549 NSCLC): 3.93 µM
TGI (A549 NSCLC): > 100 µM
GI50 (IGROV1 ovarian): 5.36 µM
TGI (IGROV1 ovarian): > 100 µM
GI50 (KM12 colon): 1.99 µM
TGI (KM12 colon): > 100 µM
GI50 (RPMI-8226 leukemia): 7.4 µM
TGI (RPMI-8226 leukemia): > 100 µM
GI50 (SF-539 CNS): 8.31 µM
TGI (SF-539 CNS): > 100 µM
GI50 (SK-MEL-2 melanoma): 3.28 µM
TGI (SK-MEL-2 melanoma): 34.4 µM
GI50 (SW-620 colon): 1.26 µM
TGI (SW-620 colon): > 100 µM
GI50 (TK-10 renal): 22 µM
TGI (TK-10 renal): > 100 µM
GI50 (UO-31 renal): 7.47 µM
TGI (UO-31 renal): > 100 µM

O=c1[nH]c(C2CCCCC2)nc2cc(Cl)ccc12
TGI (A549 NSCLC): > 100 µM
TGI (IGROV1 ovarian): > 100 µM
TGI (KM12 colon): > 100 µM
TGI (RPMI-8226 leukemia): > 100 µM
TGI (SF-539 CNS): > 100 µM
TGI (SK-MEL-2 melanoma): > 100 µM
TGI (SW-620 colon): > 100 µM
TGI (TK-10 renal): > 100 µM
TGI (UO-31 renal): > 100 µM
